Assay results as given in ChEMBL document CHEMBL5247667, “Design, synthesis and characterizations of prodrugs of brexanolone” (Bioorg Med Chem Lett, 2023).

Legend:
[1] = Metabolic stability in Sprague-Dawley rat plasma assessed as half life at 1 uM incubated for 60 min by LC-MS/MS method; format: ADME, cell-free
[2] = Metabolic stability in human plasma assessed as half life at 1 uM incubated for 60 min by LC-MS/MS method; format: ADME, cell-free
[3] = Metabolic stability in beagle dog plasma assessed as half life at 1 uM incubated for 60 min by LC-MS/MS method; format: ADME, cell-free, Canis lupus familiaris
[4] = Metabolic stability in human liver S9 fraction assessed as half life at 1 uM incubated for 60 min by LC-MS/MS method; format: ADME, subcellular
[5] = Metabolic stability in beagle dog liver S9 fraction assessed as half life at 1 uM incubated for 60 min by LC-MS/MS method; format: ADME, subcellular, Canis lupus familiaris
[6] = Prodrug conversion in Sprague-Dawley rat assessed as ratio of AUC for compound to BXN at 1 mg/kg,IV and measured after 60 mins by LC-MS/MS analysis; format: ADME, organism-based; settings: in vivo, 1 h
[7] = Prodrug conversion in Sprague-Dawley rat assessed as ratio of AUC for compound to BXN at 5 mg/kg,IM and measured after 60 mins by LC-MS/MS analysis; format: ADME, organism-based; settings: in vivo, 1 h
[8] = Half life in Sprague-Dawley rat assessed as BXN at 5 mg/kg, IM administered for 30 mins measured after 24 hrs post dose by LC-MS/MS analysis; format: ADME, organism-based; settings: in vivo, 24.5 h
[9] = AUClast in Sprague-Dawley rat assessed as BXN at 5 mg/kg, IM administered for 30 mins measured after 24 hrs post dose by LC-MS/MS analysis; format: ADME, organism-based; parameters: time 24.5 hrs, dose 5 mg/kg, route im; settings: in vivo, 24.5 h
[10] = Cmax in Sprague-Dawley rat assessed as BXN at 5 mg/kg, IM administered for 30 mins measured after 24 hrs post dose by LC-MS/MS analysis; format: ADME, organism-based; parameters: time 24.5 hrs, dose 5 mg/kg, route im; settings: in vivo, 24.5 h
[11] = Clearance in Sprague-Dawley rat at 1 mg/kg, IV administered for 30 mins measured after 24 hrs post dose by LC-MS/MS analysis; format: ADME, organism-based; settings: in vivo, time 24.5 hrs
[12] = Half life in Sprague-Dawley rat assessed as BXN at 1 mg/kg, IV administered for 30 mins measured after 24 hrs post dose by LC-MS/MS analysis; format: ADME, organism-based; settings: in vivo, 24.5 h
[13] = Half life in Sprague-Dawley rat at 1 mg/kg, IV administered for 30 mins measured after 24 hrs post dose by LC-MS/MS analysis; format: ADME, organism-based; settings: in vivo, time 24.5 hrs
[14] = AUClast in Sprague-Dawley rat at 1 mg/kg, IV administered for 30 mins measured after 24 hrs post dose by LC-MS/MS analysis; format: ADME, organism-based; parameters: dose 1 mg/kg, time 24.5 hrs, route iv; settings: in vivo
[15] = AUClast in Sprague-Dawley rat assessed as BXN at 1 mg/kg, IV administered for 30 mins measured after 24 hrs post dose by LC-MS/MS analysis; format: ADME, organism-based; parameters: dose 1 mg/kg, time 24.5 hrs, route iv; settings: in vivo, 24.5 h
[16] = Cmax in Sprague-Dawley rat at 1 mg/kg, IV administered for 30 mins measured after 24 hrs post dose by LC-MS/MS analysis; format: ADME, organism-based; parameters: time 24.5 hrs, dose 1 mg/kg, route iv; settings: in vivo
[17] = Cmax in Sprague-Dawley rat assessed as BXN at 1 mg/kg, IV administered for 30 mins measured after 24 hrs post dose by LC-MS/MS analysis; format: ADME, organism-based; parameters: time 24.5 hrs, dose 1 mg/kg, route iv; settings: in vivo, 24.5 h
[18] = Half life in beagle dog assessed as BXN at 1 mg/kg, IV administered for 30 mins measured after 24 hrs post dose by LC-MS/MS analysis; format: ADME, organism-based, Canis lupus familiaris; settings: in vivo, 24.5 h
[19] = Half life in beagle dog assessed as BXN at 5 mg/kg, IM administered for 30 mins measured after 24 hrs post dose by LC-MS/MS analysis; format: ADME, organism-based, Canis lupus familiaris; settings: in vivo, 24.5 h
[20] = AUClast in beagle dog at 1 mg/kg, IV administered for 30 mins measured after 24 hrs post dose by LC-MS/MS analysis; format: ADME, organism-based, Canis lupus familiaris; parameters: time 24.5 hrs, dose 1 mg/kg, route iv; settings: in vivo
[21] = AUClast in beagle dog assessed as BXN at 1 mg/kg, IV administered for 30 mins measured after 24 hrs post dose by LC-MS/MS analysis; format: ADME, organism-based, Canis lupus familiaris; parameters: dose 1 mg/kg, time 24.5 hrs, route iv; settings: in vivo, 24.5 h
[22] = AUClast in beagle dog assessed as BXN at 5 mg/kg, IM administered for 30 mins measured after 24 hrs post dose by LC-MS/MS analysis; format: ADME, organism-based, Canis lupus familiaris; parameters: time 24.5 hrs, dose 5 mg/kg, route im; settings: in vivo, 24.5 h
[23] = Cmax in beagle dog at 1 mg/kg, IV administered for 30 mins measured after 24 hrs post dose by LC-MS/MS analysis; format: ADME, organism-based, Canis lupus familiaris; parameters: time 24.5 hrs, dose 1 mg/kg, route iv; settings: in vivo
[24] = Cmax in beagle dog assessed as BXN at 1 mg/kg, IV administered for 30 mins measured after 24 hrs post dose by LC-MS/MS analysis; format: ADME, organism-based, Canis lupus familiaris; parameters: dose 1 mg/kg, time 24.5 hrs, route iv; settings: in vivo, 24.5 h
[25] = Cmax in beagle dog assessed as BXN at 5 mg/kg, IM administered for 30 mins measured after 24 hrs post dose by LC-MS/MS analysis; format: ADME, organism-based, Canis lupus familiaris; parameters: time 24.5 hrs, dose 5 mg/kg, route im; settings: in vivo, 24.5 h
[26] = Prodrug conversion in beagle dog assessed as ratio of AUC for compound to BXN at 1 mg/kg,IV and measured after 60 mins by LC-MS/MS analysis; format: ADME, organism-based, Canis lupus familiaris; settings: in vivo, 1 h
[27] = Prodrug conversion in beagle dog assessed as ratio of AUC for compound to BXN at 5 mg/kg,IM and measured after 60 mins by LC-MS/MS analysis; format: ADME, organism-based, Canis lupus familiaris; settings: in vivo, 1 h
[28] = Metabolic stability in Sprague-Dawley rat liver S9 fraction assessed as half life at 1 uM incubated for 60 min by LC-MS/MS method; format: ADME, subcellular

## CC(=O)OCCCC(=O)O[C@@H]1CC[C@@]2(C)[C@@H](CC[C@@H]3[C@@H]2CC[C@]2(C)[C@@H](C(C)=O)CC[C@@H]32)C1
[1]
  half-life at 1 µM: 1.6 min
[2]
  half-life at 1 µM: 176 min
[3]
  half-life at 1 µM: 138 min
[4]
  half-life at 1 µM: 0.9 min

## CC(=O)[C@H]1CC[C@H]2[C@@H]3CC[C@H]4C[C@H](OC(=O)CC5CCCC5)CC[C@]4(C)[C@H]3CC[C@]12C
[2]
  half-life at 1 µM: 300 min
[4]
  half-life at 1 µM: 25 min

## CC(=O)OCCCC(C)C(=O)O[C@@H]1CC[C@@]2(C)[C@@H](CC[C@@H]3[C@@H]2CC[C@]2(C)[C@@H](C(C)=O)CC[C@@H]32)C1 (stereo partly specified)
[2]
  half-life at 1 µM: 145 min
[3]
  half-life at 1 µM: 233 min
[4]
  half-life at 1 µM: 0.9 min
[5]
  half-life at 1 µM: 1 min

## CC(=O)[C@H]1CC[C@H]2[C@@H]3CC[C@H]4C[C@H](OC(=O)OCc5oc(=O)oc5C)CC[C@]4(C)[C@H]3CC[C@]12C
[1]
  half-life at 1 µM: < 2 min
[2]
  half-life at 1 µM: 40 min
[3]
  half-life at 1 µM: 30 min
[4]
  half-life at 1 µM: 1.2 min
[5]
  half-life at 1 µM: 2.3 min
[6]
  Ratio AUC: > 253
[7]
  Ratio AUC: 2.9
[8]
  t1/2: 1730 min
[9]
  AUClast: 0.253 µg·h/mL
[10]
  Cmax: 0.0234 µg/mL
[11]
  clearance: 26.4 L/h/kg
[12]
  t1/2: 1900 min
[13]
  half-life: 17 min
[14]
  AUC(0-t) at 24.5 h: 0.0386 µg·h/mL
[15]
  AUClast: 0.113 µg·h/mL
[16]
  Cmax: 0.103 µg/mL
[17]
  Cmax: 0.107 µg/mL
[18]
  t1/2: 28.4 min
[19]
  t1/2: 618 min
[20]
  AUC(0-t) at 24.5 h: 0.0626 µg·h/mL
[21]
  AUClast: 0.148 µg·h/mL
[22]
  AUClast: 0.122 µg·h/mL
[23]
  Cmax: 0.151 µg/mL
[24]
  Cmax: 0.241 µg/mL
[25]
  Cmax: 0.0266 µg/mL
[26]
  Ratio AUC: 2.4
[27]
  Ratio AUC: > 122

## CC(=O)[C@H]1CC[C@H]2[C@@H]3CC[C@H]4C[C@H](OC(=O)CCCOC(=O)C(C)C)CC[C@]4(C)[C@H]3CC[C@]12C
[1]
  half-life at 1 µM: 1.2 min
[2]
  half-life at 1 µM: 140 min
[3]
  half-life at 1 µM: 233 min
[4]
  half-life at 1 µM: 1.2 min
[5]
  half-life at 1 µM: 1.9 min
[28]
  half-life at 1 µM: 1.1 min

## CCCCOC(=O)O[C@@H]1CC[C@@]2(C)[C@@H](CC[C@@H]3[C@@H]2CC[C@]2(C)[C@@H](C(C)=O)CC[C@@H]32)C1
[1]
  half-life at 1 µM: 6.3 min
[2]
  half-life at 1 µM: > 233 min
[3]
  half-life at 1 µM: 132 min
[4]
  half-life at 1 µM: 1.6 min
[5]
  half-life at 1 µM: 1.5 min
[28]
  half-life at 1 µM: 16 min

## CC(=O)[C@H]1CC[C@H]2[C@@H]3CC[C@H]4C[C@H](OC(=O)NCCOC(=O)C(C)C)CC[C@]4(C)[C@H]3CC[C@]12C
[2]
  half-life at 1 µM: 289 min
[4]
  half-life at 1 µM: 0.6 min
